Results published in patent publication US20260285850A1, “SUBSTITUTED OXAZOLIDINONES AND IMIDAZOLINONES AS HERBICIDES” (FMC CORPORATION, priority 2023, published 2026).

Assays:
Type in all cases: in vivo
[1] = test system: ducksalad (Heteranthera limosa); test: Test B flooded paddy test, visual plant response rating 0-100; details: 250 g ai/ha, Flood, applied to paddy water, evaluated after 13 days
Outline: (§1)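 Visual scores versus untreated controls were recorded 13 days after treatment of greenhouse-held plants. At the 2-leaf stage, pots were flooded 3 cm above the soil surface and compounds added straight to the water.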

[2] = test system: barnyardgrass (Echinochloa crusgalli); test: as above; details: 250 g ai/ha, Flood, applied to paddy water, evaluated after 13 days
Outline: as §1

rice (Oryza sativa) = test: as above; details: 250 g ai/ha, Flood, applied to paddy water, evaluated after 13 days
Outline: as §1

[3] = test system: sedge, umbrella (small-flower umbrella sedge, Cyperus difformis); test: as above; details: 250 g ai/ha, Flood, applied to paddy water, evaluated after 13 days
Outline: as §1

kochia (Bassia scoparia) [4] = test: Test A preemergence soil spray, visual injury rating 0-100; details: 10 days
Outline: (§2)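 Compounds formulated in a non-phytotoxic solvent with surfactant are sprayed onto soil of freshly planted loam-sand pots ahead of emergence, or onto emerged plants 2-10 cm tall. After a 10-day greenhouse period, each species is scored visually for injury against untreated controls.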

[5] = test system: wheat (Triticum aestivum); test: as above; details: 10 days
Outline: as §2

[6] = test system: barnyardgrass (Echinochloa crus-galli); test: as above; details: 10 days
Outline: as §2

[7] = test system: ragweed (common ragweed, Ambrosia artemisiifolia); test: as above; details: 10 days
Outline: as §2

[8] = test system: blackgrass (Alopecurus myosuroides); test: as above; details: 10 days
Outline: as §2

[9] = test system: oat, wild (wild oat, Avena fatua); test: as above; details: 10 days
Outline: as §2

soybean (Glycine max) [10] = test: as above; details: 10 days
Outline: as §2

corn (Zea mays) [11] = test: as above; details: 10 days
Outline: as §2

[12] = test system: palmer (palmer amaranth, palmer pigweed, Amaranthus palmeri); test: as above; details: 10 days
Outline: as §2

[13] = test system: green foxtail (Setaria viridis); test: as above; details: 10 days
Outline: as §2

[14] = test system: ryegrass, Italian (italian ryegrass, Lolium multiflorum); test: as above; details: 10 days
Outline: as §2

kochia (Bassia scoparia) [15] = test: Test A postemergence application, visual injury rating 0-100
Outline: as §2

[16] = test system: wheat (Triticum aestivum); test: as above
Outline: as §2

[17] = test system: barnyardgrass (Echinochloa crus-galli); test: as above
Outline: as §2

[18] = test system: ragweed (common ragweed, Ambrosia artemisiifolia); test: as above
Outline: as §2

[19] = test system: galium (catchweed bedstraw, Galium aparine); test: as above; details: Postemergence, 16 g ai/ha, greenhouse 10 days; 0 no effect, 100 complete control
Outline: as §2

[20] = test system: horseweed (Erigeron canadensis); test: as above
Outline: as §2

[21] = test system: blackgrass (Alopecurus myosuroides); test: as above
Outline: as §2

[22] = test system: oat, wild (wild oat, Avena fatua); test: as above
Outline: as §2

soybean (Glycine max) [23] = test: as above
Outline: as §2

corn (Zea mays) [24] = test: as above
Outline: as §2

[25] = test system: palmer (palmer amaranth, palmer pigweed, Amaranthus palmeri); test: as above
Outline: as §2

[26] = test system: green foxtail (Setaria viridis); test: as above
Outline: as §2

[27] = test system: ryegrass, Italian (italian ryegrass, Lolium multiflorum); test: as above
Outline: as §2

[28] = 62 g ai/ha, 0 = no effect, 100 = complete control
[29] = 62 g ai/ha, postemergence, 10 days, 0 = no effect, 100 = complete control
[30] = Postemergence, 16 g ai/ha, greenhouse 10 days, 0 no effect, 100 complete control

CC1(C(=O)NC2CC=C(C(=O)OCC(F)F)C2)CN(c2cc(F)cc(F)c2)C(=O)O1 (stereo not drawn) [Compound 152]
Plant response rating, Ducksalad (0 to 100 scale, 0 is no effect and 100 is complete control) [1]: 80
Plant response rating, Barnyardgrass (0 to 100 scale, 0 is no effect and 100 is complete control) [2]: 90
Plant response rating, Rice (0 to 100 scale, 0 is no effect and 100 is complete control) (rice (Oryza sativa)): 85
Plant response rating, Sedge, Umbrella (0 to 100 scale, 0 is no effect and 100 is complete control) [3]: 90
Kochia plant response rating (kochia (Bassia scoparia) [4]; 16 g ai/ha, 0 to 100 scale): 90
Kochia plant response rating (0-100) (kochia (Bassia scoparia) [4]; [28]): 90
Wheat plant response rating ([5]; 16 g ai/ha, 0 to 100 scale): 70
Wheat plant response rating (0-100) [5, 28]: 90
Barnyardgrass plant response rating ([6]; 16 g ai/ha, 0 to 100 scale): 30
Barnyardgrass plant response rating (0-100) [6, 28]: 100
Ragweed plant response rating ([7]; 16 g ai/ha, 0 to 100 scale): 0
Ragweed plant response rating (0-100) [7, 28]: 30
Blackgrass plant response rating ([8]; 16 g ai/ha, 0 to 100 scale): 0
Blackgrass plant response rating (0-100) [8, 28]: 0
Oat, Wild plant response rating ([9]; 16 g ai/ha, 0 to 100 scale): 0
Oat, Wild plant response rating (0-100) [9, 28]: 70
Soybean plant response rating (soybean (Glycine max) [10]; 16 g ai/ha, 0 to 100 scale): 0
Soybean plant response rating (0-100) (soybean (Glycine max) [10]; [28]): 60
Corn plant response rating (corn (Zea mays) [11]; 16 g ai/ha, 0 to 100 scale): 10
Corn plant response rating (0-100) (corn (Zea mays) [11]; [28]): 60
Pigweed, Palmer plant response rating ([12]; 16 g ai/ha, 0 to 100 scale): 0
Pigweed, Palmer plant response rating (0-100) [12, 28]: 90
Foxtail, Green plant response rating ([13]; 16 g ai/ha, 0 to 100 scale): 30
Foxtail, Green plant response rating (0-100) [13, 28]: 100
Ryegrass, Italian plant response rating ([14]; 16 g ai/ha, 0 to 100 scale): 70
Ryegrass, Italian plant response rating (0-100) [14, 28]: 90
Kochia plant response rating (0-100) (kochia (Bassia scoparia) [15]; [29]): 90
Kochia plant response rating (0 to 100 scale) (kochia (Bassia scoparia) [15]; [30]): 90
Wheat plant response rating (0-100) [16, 29]: 90
Wheat plant response rating (0 to 100 scale) [16, 30]: 80
Barnyardgrass plant response rating (0-100) [17, 29]: 100
Barnyardgrass plant response rating (0 to 100 scale) [17, 30]: 100
Ragweed plant response rating (0-100) [18, 29]: 50
Ragweed plant response rating (0 to 100 scale) [18, 30]: 20
Galium plant response rating (0 to 100 scale) [19]: 70
Horseweed plant response rating (0-100) [20, 29]: 70
Horseweed plant response rating (0 to 100 scale) [20, 30]: 30
Blackgrass plant response rating (0-100) [21, 29]: 100
Blackgrass plant response rating (0 to 100 scale) [21, 30]: 70
Oat, Wild plant response rating (0-100) [22, 29]: 90
Oat, Wild plant response rating (0 to 100 scale) [22, 30]: 80
Soybean plant response rating (0-100) (soybean (Glycine max) [23]; [29]): 80
Soybean plant response rating (0 to 100 scale) (soybean (Glycine max) [23]; [30]): 60
Corn plant response rating (0-100) (corn (Zea mays) [24]; [29]): 100
Corn plant response rating (0 to 100 scale) (corn (Zea mays) [24]; [30]): 100
Pigweed, Palmer plant response rating (0-100) [25, 29]: 90
Pigweed, Palmer plant response rating (0 to 100 scale) [25, 30]: 60
Foxtail, Green plant response rating (0-100) [26, 29]: 90
Foxtail, Green plant response rating (0 to 100 scale) [26, 30]: 90
Ryegrass, Italian plant response rating (0-100) [27, 29]: 80
Ryegrass, Italian plant response rating (0 to 100 scale) [27, 30]: 70
